Test results: PubChem BioAssay (NCI)
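Exposure lasted 48 hours, with cells grown in 96-well plates and compounds tested at five concentrations. GI50 is the concentration that inhibits growth by half. TGI is the concentration that stops growth completely.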

Assays:
Experiment in all cases: DTP human tumour cell line panel, 48 h
[1] = system: KM12 colon
[2] = system: M14 melanoma
[3] = system: U251 CNS
[4] = system: 786-0 renal
[5] = system: RPMI-8226 leukemia
[6] = system: OVCAR-8 ovarian
[7] = system: OVCAR-4 ovarian
[8] = system: MDA-MB-231 breast
[9] = system: SNB-19 CNS
[10] = system: MALME-3M melanoma
[11] = system: TK-10 renal
[12] = system: SF-295 CNS
[13] = system: CCRF-CEM leukemia
[14] = system: SW-620 colon
[15] = system: LOX IMVI melanoma
[16] = system: SF-268 CNS
[17] = system: UACC-62 melanoma
[18] = system: HCT-15 colon
[19] = system: UO-31 renal
[20] = system: A549 NSCLC
[21] = system: SK-OV-3 ovarian
[22] = system: SR leukemia
[23] = system: SK-MEL-5 melanoma
[24] = system: NCI-H460 lung
[25] = system: MCF7 breast
[26] = system: PC-3 prostate
[27] = system: MDA-MB-468 breast
[28] = system: OVCAR-3 ovarian
[29] = system: HS 578T breast
[30] = system: HL-60(TB) leukemia
[31] = system: MOLT-4 leukemia
[32] = system: COLO 205 colon
[33] = system: HOP-62 NSCLC
[34] = system: SNB-75 CNS
[35] = system: EKVX NSCLC
[36] = system: HT29 colon
[37] = system: A498 renal
[38] = system: HOP-92 NSCLC
[39] = system: NCI-H23 lung
[40] = system: NCI/ADR-RES ovarian
[41] = system: UACC-257 melanoma
[42] = system: SF-539 CNS
[43] = system: K-562 leukemia
[44] = system: T-47D breast
[45] = system: DU-145 prostate
[46] = system: OVCAR-5 ovarian
[47] = system: ACHN renal
[48] = system: SN12C renal
[49] = system: SK-MEL-2 melanoma
[50] = system: SK-MEL-28 melanoma
[51] = system: MDA-MB-435
[52] = system: CAKI-1 renal
[53] = system: BT-549 breast
[54] = system: NCI-H226 lung
[55] = system: RXF 393 renal
[56] = system: NCI-H522 lung
[57] = system: HCT-116 colon
[58] = system: IGROV1 ovarian
[59] = system: HCC-2998 colon

O=C(Cc1ccc2c(c1)CN(C1CCC(=O)NC1=O)C2=O)NCCc1ccccc1 (stereo unspecified) gave a GI50 [1] of 276 nM, a TGI [1] greater than 100000 nM and a GI50 [2] of 114 nM. It also gave a TGI [2] greater than 56400 nM, a GI50 [3] greater than 25100 nM and a TGI [3] greater than 100000 nM. For the same compound, the GI50 [4] was 124 nM, the TGI [4] was greater than 100000 nM and the GI50 [5] was 441 nM. It also gave a TGI [5] greater than 100000 nM, a GI50 [6] of 32.3 nM and a TGI [6] greater than 21400 nM. For the same compound, the GI50 [7] was 436 nM, the TGI [7] was greater than 70900 nM and the GI50 [8] was less than 10 nM. The TGI [8] was 10.2 nM, the GI50 [9] was 76.7 nM and the TGI [9] was greater than 28700 nM. For the same compound, the GI50 [10] was 13.5 nM, the TGI [10] was 74.6 nM and the GI50 [11] was 727 nM. For the same compound, the TGI [11] was greater than 100000 nM, the GI50 [12] was 530 nM and the TGI [12] was greater than 100000 nM. For the same compound, the GI50 [13] was less than 10 nM, the GI50 [14] was 39.1 nM and the TGI [14] was greater than 100000 nM. The GI50 [15] was greater than 100000 nM, the TGI [15] was greater than 100000 nM and the GI50 [16] was 510 nM. For the same compound, the TGI [16] was greater than 100000 nM, the GI50 [17] was 2460 nM and the TGI [17] was greater than 100000 nM. It also gave a GI50 [18] of 166 nM, a TGI [18] of 4750 nM and a GI50 [19] of 226 nM. The TGI [19] was 6270 nM, the GI50 [20] was 663 nM and the TGI [20] was greater than 100000 nM. For the same compound, the GI50 [21] was 484 nM, the TGI [21] was greater than 85700 nM and the GI50 [22] was greater than 76500 nM. It also gave a TGI [22] greater than 100000 nM, a GI50 [23] of 156 nM and a TGI [23] of 991 nM. The GI50 [24] was greater than 100000 nM, the TGI [24] was greater than 100000 nM and the GI50 [25] was 200 nM. The TGI [25] was greater than 100000 nM, the GI50 [26] was 36.7 nM and the TGI [26] was greater than 100000 nM. The GI50 [27] was less than 10 nM, the TGI [27] was 16.8 nM and the GI50 [28] was 2240 nM. It also gave a TGI [28] greater than 100000 nM, a GI50 [29] of 38.5 nM and a TGI [29] of 3100 nM. For the same compound, the GI50 [30] was less than 10 nM, the TGI [30] was 2190 nM and the GI50 [31] was less than 10 nM. The TGI [31] was greater than 100000 nM, the GI50 [32] was 43.8 nM and the TGI [32] was 1280 nM. The GI50 [33] was 30.9 nM, the TGI [33] was 1320 nM and the GI50 [34] was 42 nM. The TGI [34] was 2200 nM, the TGI [35] was greater than 100000 nM and the GI50 [36] was 530 nM. For the same compound, the TGI [36] was greater than 100000 nM, the GI50 [37] was 297 nM and the TGI [37] was 7760 nM. The GI50 [38] was 13.4 nM, the TGI [38] was 146 nM and the GI50 [39] was greater than 60800 nM. The TGI [39] was greater than 100000 nM, the GI50 [40] was 5940 nM and the TGI [40] was greater than 100000 nM. The GI50 [41] was greater than 100000 nM, the TGI [41] was greater than 100000 nM and the GI50 [42] was 564 nM. It also gave a TGI [42] greater than 100000 nM, a GI50 [43] of 581 nM and a TGI [43] greater than 100000 nM. It also gave a GI50 [44] of 21.8 nM, a TGI [44] of 414 nM and a GI50 [45] of 20800 nM. The TGI [45] was greater than 100000 nM, the GI50 [46] was 145 nM and the TGI [46] was 30500 nM. For the same compound, the GI50 [47] was 5320 nM, the TGI [47] was greater than 100000 nM and the GI50 [48] was 188 nM. It also gave a TGI [48] greater than 30900 nM, a GI50 [49] of 225 nM and a TGI [49] of 1820 nM. It also gave a GI50 [50] of 589 nM, a TGI [50] greater than 100000 nM and a GI50 [51] of 551 nM. It also gave a TGI [51] greater than 100000 nM, a GI50 [52] of 276 nM and a TGI [52] greater than 100000 nM. It also gave a GI50 [53] of 19.2 nM, a TGI [53] of 75.5 nM and a GI50 [54] of 68.5 nM. The TGI [54] was 1410 nM, the GI50 [55] was 402 nM and the TGI [55] was greater than 24100 nM. The GI50 [56] was greater than 20200 nM, the TGI [56] was greater than 100000 nM and the GI50 [57] was 67900 nM. It also gave a TGI [57] greater than 100000 nM, a GI50 [58] of 33.6 nM and a TGI [58] of 1080 nM. The GI50 [59] was 45.1 nM and the TGI [59] was 1320 nM.
